Reference: patent US12247011B2, “Selective inhibitors of NLRP3 inflammasome” (NodThera Limited, priority 2017, dated 2025)
pIC50: −log10 of the molar value.

system: IL-1β release upon NLRP3 activation in peripheral blood mononuclear cells (PBMC); assay: PBMC IC50 Determination Assay; assay type: cell-based; settings: Homo sapiens; LPS-primed PBMC, 30 min compound, stimulated with ATP (5 mM) or nigericin (10 μM) for 1 h; IL-1β ELISA; read-out: PBMC IC50
Method: PBMC IC50 Determination Assay
The compounds of the present disclosure were tested for their inhibitory activity against IL-1β release upon NLRP3 activation in peripheral blood mononuclear cells (PBMC).
Isolated cells were seeded into the wells of a 96-well plate and incubated for 3 h with lipopolysaccharide (LPS). Following medium exchange, the compounds of the present disclosure were added (a single compound per well) and the cells were incubated for 30 min. Next, the cells were stimulated either with ATP (5 mM) or nigericin (10 μM) for 1 h and the cell culture media from the wells were collected for further analysis.
The release of IL-1β into the media was determined by a quantitative detection of IL-1β in the media using an IL-1β enzyme-linked immunosorbent assay (ELISA) Ready-SET-Go!, eBioscience cat. […] Subsequently, plates were blocked with blocking buffer for 1 h at room temperature (rt) and after washing with a buffer (PBS with 0.05% Tween-20) incubated with protein standard and culture media. […] Plates were washed and incubated with HRP-streptavidin for 30 min at rt and washed again. The signal was developed after addition of 3,3,5,5-tetramethylbenzidine-peroxidase (TMB) until colour appeared and the reaction was stopped by 2 M H2SO4. A microplate spectrophotometer (BioTek) was used to detect signals with 450 nm. The detection range of IL-1β ELISA was 2-150 ng/ml.

Q: How did the pIC50 turn out when `COC[C@@H](OC(=O)Nc1c2c(cc3c1CCC3)CCC2)C(=O)O` [Compound 69, (2R)-2-{[(1,2,3,5,6,7-hexahydro-s-indacen-4-yl)carbamoyl]oxy}-3-methoxypropanoic acid] was run?
A: 6.00 to 7.00

Q: How did the pIC50 turn out when `CCOC(=O)C(Cn1cccn1)OC(=O)Nc1cccc(C(F)(F)F)c1Cl` (stereo not shown) [Compound 70, Ethyl 2-({[2-chloro-3-(trifluoromethyl)phenyl]carbamoyl}oxy)-3-(1H-pyrazol-1-yl)propanoate] was run?
A: 5.00 to 6.00

Q: With `CCOC(=O)C(Cn1ccc(C)n1)OC(=O)Nc1c2c(cc3c1CCC3)CCC2` (stereo not shown) [Compound 72, Ethyl 2-{[(1,2,3,5,6,7-hexahydro-s-indacen-4-yl)carbamoyl]oxy}-3-(3-methyl-1H-pyrazol-1-yl)propanoate] as the molecule, how does the pIC50 read?
A: 7.00 to 8.00

Q: How did the pIC50 turn out when `CCOC(=O)C(Cn1cccn1)OC(=O)Nc1c(F)cc(F)cc1F` (stereo not shown) [Compound 73, Ethyl 3-(1H-pyrazol-1-yl)-2-{[(2,4,6-trifluorophenyl)carbamoyl]oxy}propanoate] was run?
A: 6.00 to 7.00

Q: How did the pIC50 turn out when `CCOC(=O)C(Cn1cccn1)OC(=O)Nc1c(C)cccc1C(C)C` (stereo not shown) [Compound 74, Ethyl 2-({[2-methyl-6-(propan-2-yl)phenyl]carbamoyl}oxy)-3-(1H-pyrazol-1-yl)propanoate] was run?
A: 6.00 to 7.00

Q: `CCOC(=O)C(Cn1cccn1)OC(=O)Nc1c(F)ccc(Cl)c1F` (stereo not shown) [Compound 75, Ethyl 2-{[(3-chloro-2,6-difluorophenyl)carbamoyl]oxy}-3-(1H-pyrazol-1-yl)propanoate] was tested. Which pIC50 did it give?
A: 6.00 to 7.00

Q: How did the pIC50 turn out when `N#Cc1cnn(C[C@@H](OC(=O)Nc2c3c(cc4c2CCC4)CCC3)C(=O)OCc2ccccc2)c1` [Compound 77, Benzyl (2R)-3-(4-cyano-1H-pyrazol-1-yl)-2-{[(1,2,3,5,6,7-hexahydro-s-indacen-4-yl)carbamoyl]oxy}propanoate] was run?
A: 7.00 to 8.00

Q: With `O=C(Nc1c2c(cc3c1CCC3)CCC2)O[C@H](Cn1ccnc1)C(=O)O` [Compound 79, (2R)-2-{[(1,2,3,5,6,7-hexahydro-s-indacen-4-yl)carbamoyl]oxy}-3-(1H-imidazol-1-yl)propanoic acid] as the molecule, how does the pIC50 read?
A: 5.00 to 6.00

Q: How did the pIC50 turn out when `CCOC(=O)C(Cn1cc(F)cn1)OC(=O)Nc1c2c(cc3c1CCC3)CCC2` (stereo not shown) [Compound 80, Ethyl 3-(4-fluoro-1H-pyrazol-1-yl)-2-{[(1,2,3,5,6,7-hexahydro-s-indacen-4-yl)carbamoyl]oxy}propanoate] was run?
A: 7.00 to 8.00

Q: How did the pIC50 turn out when `CCOC(=O)C(Cn1cncc1C)OC(=O)Nc1c2c(cc3c1CCC3)CCC2` (stereo not shown) [Compound 81, Ethyl 2-{[(1,2,3,5,6,7-hexahydro-s-indacen-4-yl)carbamoyl]oxy}-3-(5-methyl-1H-imidazol-1-yl)propanoate] was run?
A: 5.00 to 6.00

Q: How did the pIC50 turn out when `N#Cc1cnn(C[C@@H](OC(=O)Nc2c3c(cc4c2CCC4)CCC3)C(=O)O)c1` [Compound 82, (2R)-3-(4-cyano-1H-pyrazol-1-yl)-2-{[(1,2,3,5,6,7-hexahydro-s-indacen-4-yl)carbamoyl]oxy}propanoic acid] was run?
A: 7.00 to 8.00

Q: `CCOC(=O)C(Cn1ccnc1C)OC(=O)Nc1c2c(cc3c1CCC3)CCC2` (stereo not shown) [Compound 84, Ethyl 2-{[(1,2,3,5,6,7-hexahydro-s-indacen-4-yl)carbamoyl]oxy}-3-(2-methyl-1H-imidazol-1-yl)propanoate] was tested. Which pIC50 did it give?
A: 5.00 to 6.00

Q: With `CCOC(=O)C(Cn1cccn1)OC(=O)Nc1c(Cl)cccc1CC` (stereo not shown) [Compound 85, Ethyl 2-{[(2-chloro-6-ethylphenyl)carbamoyl]oxy}-3-(1H-pyrazol-1-yl)propanoate] as the molecule, how does the pIC50 read?
A: 7.00 to 8.00

Q: `CCOC(=O)C(Cn1cccn1)OC(=O)Nc1c(C)ccc2ccccc12` (stereo not shown) [Compound 86, Ethyl 2-{[(2-methylnaphthalen-1-yl)carbamoyl]oxy}-3-(1H-pyrazol-1-yl)propanoate] was tested. Which pIC50 did it give?
A: 7.00 to 8.00

Q: With `CCOC(=O)C(Cn1cccn1)OC(=O)NC1CCCCC1C` (stereo not shown) [Compound 87, Ethyl 2-{[(2-methylcyclohexyl)carbamoyl]oxy}-3-(1H-pyrazol-1-yl)propanoate] as the molecule, how does the pIC50 read?
A: 5.00 to 6.00

Q: How did the pIC50 turn out when `CCOC(=O)[C@@H](Cn1cc(Cl)cn1)OC(=O)Nc1c2c(cc3c1CCC3)CCC2` [Compound 88, Ethyl (2R)-3-(4-chloro-1H-pyrazol-1-yl)-2-{[(1,2,3,5,6,7-hexahydro-s-indacen-4-yl)carbamoyl]oxy}propanoate] was run?
A: 7.00 to 8.00
